In ChEMBL document CHEMBL1157539, “Thousands of chemical starting points for antimalarial lead identification” (Nature, 2010):

System: Plasmodium falciparum
Assay: GSK_TCMDC: Inhibition of Plasmodium falciparum 3D7 in whole erythrocytes, using parasite LDH activity as an index of growth.
Type: functional, organism-based
Conditions: Plasmodium falciparum, 3D7

CC(C)c1cc2c(ccc3nc(N)nc(N)c32)[nH]1
XC50: 0.039 µM

COc1ccc(Oc2cnc(N)nc2N)c(C(C)C)c1
XC50: 0.74 µM

Cc1cc(NCCC(=O)NCCOc2ccccc2)nc(NCc2ccccc2C)n1
XC50: 0.867 µM

CN1CCN(CC(=O)Nc2cccc(-c3ccc(-c4nc5cc(F)ccc5[nH]4)cc3)c2)CC1
XC50: 0.703 µM

CNCCNCc1cccc(-c2cccc(-c3nc4cc(C(F)(F)F)ccc4[nH]3)c2)c1
XC50: 0.203 µM

O=C(Nc1ccc(Cn2nc(Cl)c(N3CCCNCC3)cc2=O)cc1)c1ccc(-c2ccccc2)cc1
XC50: 0.713 µM

COc1ccc(C=NNc2nc(O)cc(-c3ccccc3)n2)cc1OC
XC50: 0.595 µM

COc1cc(C)nc2ccc(NC(=O)c3ccc(C(=O)Nc4ccc5nc(C)cc(OC)c5c4)cc3)cc12
XC50: 0.0633 µM

CC(C)CNC(=O)c1cncc(-c2ccc(CNCCCc3ccccc3)cc2)c1
XC50: 0.77 µM

COc1ccc(S(=O)(=O)NC2CCN(c3ccc(C(F)(F)F)cc3NC(=O)OCC(C)C)CC2)cc1
XC50: 1.22 µM

CCC1=C[C@@H]2CN(C1)Cc1c([nH]c3ccccc13)[C@@](C(=O)OC)(c1cc3c(cc1OC)N(C)[C@H]1[C@@](O)(C(=O)OC)[C@H](O)[C@]4(CC)C=CCN5CC[C@]31[C@@H]54)C2
XC50: 0.866 µM

CC(CN1CCN(C)CC1)C(=O)Nc1ccc(-c2cccc(-c3nc4ccccc4[nH]3)c2)cc1 (stereo unspecified)
XC50: 0.566 µM

COc1cc(NC2CCCC(NCc3cn(S(=O)(=O)c4ccccc4)c4ccccc34)C2)nc2ccccc12 (stereo unspecified)
XC50: 0.248 µM

CCc1ccc(NC(=O)c2ccc(CN3CCCN(Cc4cccc(O)c4)CC3)cc2)cc1
XC50: 0.673 µM

CCc1sc(-c2cc(Cl)ccc2OC)nc1C(=O)NCCN1CCCCC1
XC50: 0.938 µM

COc1ccc(S(=O)(=O)Nc2cc(Br)cc3c2OCCC3)cc1N1CCN(C(=O)C(Cl)(Cl)Cl)CC1
XC50: 0.871 µM

Cc1cc(=O)[nH]c(-n2nc(C)cc2NC(=O)C(c2ccccc2)c2ccccc2)n1
XC50: 0.839 µM

Cc1nc(-c2ccc(-c3ccc(NC(=O)c4coc5ccc(N6CC(C)NC(C)C6)cc45)cc3)c(C)c2)no1 (stereo unspecified)
XC50: 0.925 µM

COc1cccc2c(NN=Cc3ccccc3Cl)cc(C)nc12
XC50: 0.211 µM

CCc1ccc(CN2CCC(CNC(=O)c3cc(-c4ccccc4F)cs3)C2)cc1 (stereo unspecified)
XC50: 0.899 µM

O=C(Nc1ccc(-c2ccccc2)cc1)Nc1cccc(Cn2ncc(N3CCNCC3)c(Cl)c2=O)c1
XC50: 0.456 µM

N#Cc1ccc(N2CCN(C(=O)c3cccc(-c4noc(C(F)(F)F)n4)c3)CC2)nc1
XC50: 0.22 µM

O=C(/C=C/c1ccc(C(F)(F)F)cc1)N1CCc2cc3nccc(N4CCN5CCC[C@H]5C4)c3cc21
XC50: 1.51 µM

Cc1cc(CN2CC[C@H](NC(=O)c3ccc(Cl)c(Cl)c3)C2)ccc1OC1CCN(C)C1 (stereo partly specified)
XC50: 0.947 µM

Cc1cc(N2CCC(NS(=O)(=O)c3ccc(F)cc3)CC2)nc(Nc2cccc(C#N)c2)n1
XC50: 0.651 µM

Cc1cccc2nc(-c3ccc(-c4cccc(CN5CCN(c6ccncc6)CC5)c4)s3)[nH]c12
XC50: 0.126 µM

Cc1ccc(NC(=O)c2cccc(C#N)c2)cc1-c1ccc(C(=O)Nc2ccncc2)cc1
XC50: 0.688 µM

CN(c1cc(NC(=O)c2cccs2)ccn1)C1CCN(Cc2cccc(F)c2)CC1
XC50: 0.676 µM

O=C(c1cccc(Cl)c1)N1CCN(c2ccc([N+](=O)[O-])c(NC3CC3)c2)CC1
XC50: 0.867 µM

O=C(/C=C/c1ccc(Cl)c(Cl)c1)NCC1CCCC(CN2CCC(c3c[nH]c4ccccc34)CC2)C1 (stereo unspecified)
XC50: 0.726 µM

COc1ccc(NC(=O)[C@H](CC(C)C)Nc2ccnc(NCCc3ccc(F)cc3)n2)cc1
XC50: 1.6 µM

CCNc1cc(C(=O)N[C@@H](Cc2ccc(F)c(F)c2)[C@H](O)CNC2CCCCC2)cc(N2CCCCS2(=O)=O)c1
XC50: 0.117 µM

COc1ccc2nccc([C@@H](O)CN3CCC(NCc4nc5c(cc4F)SCC(=O)N5)C(F)C3)c2c1 (stereo partly specified)
XC50: 0.725 µM

Cc1cccc2nc(-c3cccc(-c4ccc(NC(=O)C5CCCO5)cc4)c3)[nH]c12 (stereo unspecified)
XC50: 0.901 µM

O=C(N[C@@H](Cc1ccccc1)C(=O)NCc1cccc2ccccc12)c1ccc(O)c(-c2ccc(Cl)c(Cl)c2)c1
XC50: 0.236 µM

CCc1cc(N2CCN(c3ccccc3F)CC2)nc(SCc2ccc(C(=O)NC3CC3)o2)n1
XC50: 0.892 µM

COc1ccc2c(NN=Cc3ccncc3)ccnc2c1
XC50: 0.956 µM

COc1ccc2[nH]ccc(=NN=CC=Cc3ccccc3)c2c1
XC50: 0.743 µM

Cc1nc2cc(/C=C/C(=O)NC3CCC(CCN4CCc5ccc(C#N)cc5CC4)CC3)ccc2[nH]1 (stereo unspecified)
XC50: 1.14 µM

O=C(Nc1cccc(-c2nn3ccccc3c2-c2ccnc(Nc3cccc(-c4cnco4)c3)n2)c1)C1CCCCC1
XC50: 0.261 µM

CCCN(CCCCCCN(CCC)CCc1ccc(O)c(O)c1)CCc1ccc(O)cc1
XC50: 1.01 µM

Cc1cc(N(CCCN(C)C)Cc2cc(F)cc(F)c2)nc(Nc2ccc(Cl)cc2)n1
XC50: 0.536 µM

COc1ccnc(NCCCNCc2cn(S(=O)(=O)c3ccccc3)c3ccccc23)c1
XC50: 0.79 µM

Cc1cc(N(C)C)nc(Nc2ccc(NC(=O)c3ccccc3F)cc2)n1
XC50: 1.16 µM

COc1ccc(-c2nc(NC(=O)CSc3ccc([N+](=O)[O-])cc3)sc2C)cc1
XC50: 0.136 µM

NC1CCCN(Cc2cccc(-c3cccc(-c4nc5ccccc5[nH]4)c3)c2)C1 (stereo unspecified)
XC50: 0.637 µM

Cc1nnc2c(NC(=O)NC(C)C)cc3cc(-c4ccc(CN5CCCCC5)cc4)ccc3n12
XC50: 1.18 µM

Cc1ccc(Cn2nc(Cl)c(N3CCNCC3)cc2=O)cc1NC(=O)Nc1ccc(-c2ccccc2)cc1
XC50: 0.675 µM

NC(=O)c1ccccc1Nc1nc(Nc2cc[nH]n2)ncc1Cl
XC50: 0.958 µM

CCOP(=O)(OCC)c1ccc(OC)c(-c2ccc[nH]2)c1
XC50: 1.19 µM

COc1ccc(CNC2CCN(C)CC2)cc1-c1ccc(S(=O)(=O)NC2CCC2)s1
XC50: 0.733 µM

Cc1cc(NCCc2ccccc2)nc(N/C(=N/CC(=O)OC(C)(C)C)Nc2ccc(C(F)(F)F)cc2)n1
XC50: 0.335 µM

Cc1cc(N)c2cc(NC(=O)c3ccc4ccccc4c3)ccc2n1
XC50: 0.254 µM

CC(C)c1ccc(-c2noc(SCC(=O)N(C)c3ccc(F)cc3)n2)cc1
XC50: 1.17 µM

Cc1cc(CN2CC[C@H](NC(=O)c3ccc(Cl)c(Cl)c3)C2)ccc1OCCCN(C)C
XC50: 0.842 µM

O=C(NCCN1CCCC1)c1ccc(-c2cccc(-c3nc4cc(F)ccc4[nH]3)c2)cc1
XC50: 0.774 µM

CCCCCCCc1c(C)[nH]c2ccc(F)cc2c1=O
XC50: 0.289 µM

Cc1nnsc1C(=O)Nc1cccc(-c2csc(-c3nc4ccccc4[nH]3)c2)c1
XC50: 0.351 µM

Cn1c2ccccc2c2c3ccccc3c(CNC(CO)(CO)CO)cc21
XC50: 0.518 µM

COc1ccc2c(c1)CCN(CCN1CCC(CNC(=O)c3ccc(-c4ccc(C#N)cc4)cc3)CC1)C2
XC50: 0.617 µM

O=C(Nc1cccnc1)c1cn(-c2ccccc2)nc1-c1cccs1
XC50: 0.869 µM

COc1ccc2nccc([C@@H](O)CN3CCC(NC(=O)c4cc5ccccc5[nH]4)CC3)c2c1
XC50: 0.969 µM

COc1cccc(CNC(=O)c2cccc(-c3cccc(CN4CCC(N5CCCC5)CC4)c3)n2)c1
XC50: 1.03 µM

Cc1ccc(Nc2nc(C)cc(Nc3cccc(NS(C)(=O)=O)c3)n2)cc1
XC50: 0.917 µM

O=C(Nc1ccc(-c2ccccc2)cc1)Nc1ccc2c(c1)CCNCC2
XC50: 0.348 µM

O=C(/C=C/c1ccc(Cl)c(Cl)c1)NCc1ccc(CN2CCC(c3c[nH]c4ccccc34)CC2)cc1
XC50: 0.711 µM

COc1ccc2nccc(N3CCC(SCCNCc4cc5c(cn4)OCCO5)C3)c2n1 (stereo unspecified)
XC50: 0.768 µM

FC(F)(F)c1ccc2c(C=Cc3ccncc3)c[nH]c2c1
XC50: 0.707 µM

COc1cc(Nc2ccnc3ccc(C(F)(F)F)cc23)ccc1OCCCc1ccccc1
XC50: 0.765 µM

Cc1cccc2nc(-c3ccc(-c4ccc(CN5CCCC(O)C5)cc4)s3)[nH]c12 (stereo unspecified)
XC50: 0.83 µM

CC(C)(C)OC(=O)Cn1cnc2cc(NC(=O)c3cc([N+](=O)[O-])cc([N+](=O)[O-])c3)ccc21
XC50: 0.312 µM

CN1CC=C(c2c[nH]c3ccc(OC(=O)c4ccccc4)cc23)C1
XC50: 0.8 µM

COc1ccc(Oc2ccccc2CNCC2CCN(CC3CCCCC3)CC2)cc1
XC50: 0.904 µM

O=S(=O)(Nc1ccc2nccc(N3CCNCC3)c2c1)c1ccc2c(Cl)cccc2c1
XC50: 0.573 µM

O=C(COc1ccccc1)NC1CCN(c2ccnc3cc(Cl)ccc23)C1 (stereo unspecified)
XC50: 0.698 µM

CN1Cc2ccc(NS(=O)(=O)c3ccc(-c4ccoc4)cc3)cc2C1
XC50: 0.16 µM

N=C(N)Nc1nc(-c2cccc(NC(=O)NCCc3c[nH]c4ccc(OCc5ccccc5)cc34)c2)cs1
XC50: 0.805 µM

CC(=O)c1ccc2cc(C(=O)NC3CCC(CCN4CCc5ccc(-c6noc(C)n6)cc5CC4)CC3)[nH]c2c1 (stereo unspecified)
XC50: 0.946 µM

CC[C@H](C)CNC(=O)c1cncc(-c2cccc(CN(C)C3CCN(C)CC3)c2)c1
XC50: 0.785 µM

CCCn1c(O)nnc1SCC(=O)Nc1cc(Cl)ccc1Cl
XC50: 0.997 µM

CCCCCCCN(CCCCCCC)CCNc1cc(C)nc2ccccc12
XC50: 0.339 µM

CCOC(=O)COc1cccc(CNc2ccc3nc(N)nc(N)c3c2)c1
XC50: 0.408 µM

O=C(NCCCc1ccccc1)c1csc(C2CCCN(C(=O)c3ccc(O)c(-c4cccc5ccccc45)c3)C2)n1 (stereo unspecified)
XC50: 0.967 µM

Cc1ccc2[nH]c3c(c2c1)CC(C(=O)NCCC(C)C)NC31CCN(Cc2ccccc2)CC1 (stereo unspecified)
XC50: 0.932 µM

Cc1cc(-c2cccc3c(NC(=O)N4CCc5cc6nccc(N7CCN8CCC[C@H]8C7)c6cc54)cccc23)cc(C)n1
XC50: 0.485 µM

CC(Oc1ccc(Cl)cc1)C(=O)N(C)C1CCN(CCCCCNC(=O)/C=C/c2ccc(Cl)c(Cl)c2)CC1 (stereo unspecified)
XC50: 0.959 µM

Fc1cc(Cl)ccc1Nc1ccnc2cc(-c3ccc(CN4CCSCC4)o3)ccc12
XC50: 0.782 µM

CCc1nnc2sc(-c3cccc(NC(=O)c4ccc(C)c([N+](=O)[O-])c4)c3)nn12
XC50: 1.41 µM

NC1=NC(Cc2ccccc2)(c2ccncc2)C(=O)N1CCCc1ccccc1 (stereo unspecified)
XC50: 0.936 µM

Cc1cc(NC(=O)c2ccsc2)ccc1OC1CCN(Cc2ccc(F)cc2)CC1
XC50: 1.22 µM

COc1ccc2nccc([C@@H](O)CN3CCC(NCc4cc5c(F)ccc(F)c5[nH]4)CC3)c2c1
XC50: 0.144 µM

COc1ccc2ncc(F)c(CCN3CC[C@H](NCc4cc(C#N)c5c(c4)OCCO5)[C@H](O)C3)c2c1
XC50: 0.885 µM

O=C(Nc1cccc(CN2CCCN(Cc3cccc(Cl)c3)CC2)c1)c1ccc(Cl)c(Cl)c1
XC50: 0.992 µM

Cc1ccnc2nc(C(=O)Nc3cc(C(F)(F)F)ccc3N3CCCCC3)nn12
XC50: 0.0618 µM

CC(C)c1ccc(CN2CCC(CNC(=O)c3cc(-c4cccc(C(F)(F)F)c4)cs3)C2)cc1 (stereo unspecified)
XC50: 0.914 µM

COc1ccccc1CN1CCC(NC(=O)c2ccc(-c3cccc(Cl)c3)s2)CC1
XC50: 1.42 µM
